The values below are quoted from earlier work in patent US12410178B2, “Small cationic ortho-5,15-di-heteroaryl-porphyrin derivatives and their applications in photoinactivation of microorganisms” (UNIVERSIDADE DE COIMBRA, priority 2019, dated 2025).

One data set deals with flies. Conditions: in vivo; cited from earlier work.
The test system of a further data set is human HeLa cells. Conditions: phototoxicity in vitro; read-out: concentration at which 50% of human HeLa cells are killed; cited from earlier work.

On to `C[n+]1ccc(-c2c3nc(c(-c4cc[n+](C)cc4)c4ccc([nH]4)c(-c4ccccc4)c4nc(c(-c5ccccc5)c5ccc2[nH]5)C=C4)C=C3)cc1` [Formula (IV), meso-(di-cis[4-N-methyl-pyridyl]cis-diphenyl-porphyrin)], for which, in the data set with flies, the phototoxicity towards flies result was “phototoxic towards flies”.
As for `CCn1cc[n+](CC)c1C1=c2ccc3[n]2[Zn@]24[n]5c(ccc5C(c5ccccc5)=C5C=CC(=[N+]52)C=3)C=C2C=CC1=[N+]24` [Formula (III), zinc(II) phenylporphinate], the IC50 with human HeLa cells is 1200 nM.
